From US9969755B2, “Photodynamic therapy photosensitizers” (The Royal Institution for the Advancement of …, priority 2016, dated 2018)

Tests used:
Assay type in all cases: physicochemical
[1] = Electrochemical studies (cyclic voltammetry); set-up: E^oB^+·/B (reversible oxidation potential): unit not given here; settings: vs ferrocene, acetonitrile
Protocol: Electrochemical measurements were performed using a three-electrode system. The working electrode was a Pt wire, a Pt mesh wire was used as the counter electrode, and a Ag/AgCl electrode was used as the reference. A 0.1 M solution of tetrabutylammonium hexafluorophosphate in dry acetonitrile was used as the electrolyte solvent in which the compounds were dissolved to 1 mM or to saturation when the latter occurred before reaching a 1 mM concentration. Concentration was determined from their absorption and calculated extinction coefficient. Solutions also contained ferrocene with a concentration of 1 mM as an internal standard. The solutions were equilibrated with argon, and all measurements were conducted under inert atmosphere, with a minimum scan rate of 0.2 V s^−1. When the acquired cyclic voltammograms were not reversible the scan rate was increased up to 1 V s^−1. Formal redox potentials were calculated from the midpoint of the cathodic and anodic peak potentials observed in the cyclic voltammograms. All values were reported vs ferrocene, with the oxidation of ferrocene measured and corrected to zero for all experiments.

[2] = Time-resolved fluorescence (fluorescence lifetime, TCSPC); settings: for increase in kdec upon halogen substitution: 4 vs 1, 6 vs 2, 3 vs 1, 5 vs 2; for kdec (fluorescence decay rate constant) / knr (non-radiative decay rate constant, (1−φf)×kdec) / krad (radiative rate constant, φf×kdec): acetonitrile, room temperature
Protocol: Fluorescence lifetime measurements were carried out using a Picoquant Fluotime 200 time correlated single photon counting (TCSPC) setup employing an LDH-P-C-470 picosecond diode laser (Picoquant) with an excitation wavelength at 466 nm as the excitation source. The laser was controlled by a PDL 800 B picosecond laser driver from Picoquant. ^1HNMR spectra were recorded on a Bruker AV 400 instrument at 400 MHz. ^13CNMR spectra were recorder on a Varian VNMRS 500 instrument at 125 MHz. ESI mass spectra were measured on a Bruker maXis impact. Laser Flash Photolysis (LFP) experiments were carried out in a commercially available Luzchem 212 LFP setup provided with a Tektronix TDS 2000 digitizer for signal capture. A Nd:Yag laser (Continuum model Surelite I-10 using a second harmonic generators, model number SL-SHG-T1) was used for excitation at a wavelength of 532 nm. Phosphorescence experiments were recorded using a Cary Eclipse Fluorescence Spectrophotometer. Singlet Oxygen phosphorescence was recorded with a Hamamatsu NIR detector (peltier cooled at −62.8° C. operating at 800 V, coupled to a grating monochromator) upon excitation with a 532 nm Nd:YAG laser. A customized Luzchem Research LFP-111 system was employed to collect and process the data. The steady-state fluorescence spectra were recorded between 500-800 nm (depending on each compound) upon exciting at the wavelength of the absorbance maxima. The excitation and emission slits were tuned according to the fluorescence quantum yield of each BODIPY (i.e. for compound 7 excitation slits were 5 nm and for compound 4 we used 2 nm). Fluorescence was recorded every 1 nm using 0.1 s integration time. For the Fluorescence lifetime measurements, the excitation rate was 10 MHz, and the detection frequency was less than 100 kHz. Photons were collected at the magic angle. The fluorescence decay traces were fit using FluoFit (Picoquant) software. For steady-state and time-resolved fluorescence measurements a quartz cuvette with a 10 mm path length was used and all the solutions were prepared in air equilibrated acetonitrile.

[3] = ^1O2 quantum yield, photooxidation of DMA (indirect method); settings: consumption of dimethylanthracene, Rose Bengal standard, air equilibrated acetonitrile
Protocol: Solutions of 9,10-dimethylanthracene (DMA, 50 μM) and photosensitizers (compound 3-10) in air equilibrated acetonitrile were irradiated in 10 mm path length quartz cell (3 ml) with a Nd:Yag laser exciting at 532 nm. Laser excitation was performed at 10 Hz, providing one laser output for every discharge of the flashlamp. An irradiation time of 1 s is equivalent to 10 laser pulses. The energy of each pulse was 10 mJ. The kinetics of DMA photooxidation were studied by following the decrease of the absorbance at λ=377 nm. The observed rate constant (kobs) was obtained by a linear least-squares fit of the semilogarithmic plot of ln [DMA]0/[DMA] (see FIG. 14). Quantum yields of ^1O2 production (φΔ^I) were calculated comparing the kobs=kq [^1O2] for the corresponding photosensitizer with that for Rose Bengal, which was used as a reference (φΔ=0.54).^1 Measurements of the sample and the reference under the same conditions afforded φΔ^I for compounds (3-10) by direct comparison of the slope in the linear region of the plots.
For the indirect detection of ^1O2, it is possible to determine the kq value considering that the production of ^1O2 is constant compare with the initial concentration of DMA. According to these, a pseudo first-order kinetic for this reaction is proposed (equations 2 to 5): […]
The conversion of DMA followed pseudo-first order kinetics with the different photosensitizers (see FIG. 14). From equation 5, it was possible to determine kobs and ^1O2.

[4] = Phosphorescence studies at 77 K; set-up: unit not given beside the values; settings: from phosphorescence emission spectra, 4:1 EtOH:MeOH
Protocol: Phosphorescence from compounds 3-6 was observed cooling a 4:1 EtOH:MeOH solution to 77 K with liquid nitrogen. Dilute sample solutions (Abs<0.1) were prepared in NMR tubes and suspended in a coldfinger Dewar (custom-made by Ace Glass) filled with liquid nitrogen.

[5] = Laser flash photolysis: triplet excited state decay and quenching; settings: for kq (triplet quenching rate constant) Q = PMHC: Ar saturated acetonitrile; for Triplet decay rate constant kT: T-T absorption at 430 nm or 550 nm, argon saturated solutions; for kT (triplet decay rate constant) Air equilibrated / kT (triplet decay rate constant) Argon Purged / kq (triplet quenching rate constant) Q = ^3O2: acetonitrile; for kq (triplet quenching rate constant) Q = ^3O2: calculated with oxygen solubility 2.42 mM
Protocol: The 500 mJ/pulse laser output was attenuated yielding 10 mJ laser pulses of 6 ns in duration. Samples were prepared in acetonitrile. The final absorbance of the BODIPY dyes was 0.1. The concentration was kept low to avoid triplet-triplet annihilation. Each sample was de-oxygenated by purging with argon gas for at least 30 min. Quartz cells containing 10×10 mm path length were used. The decay of the BODIPYs was monitored between 420-440 and 520-550 nm (depending the BODIPY) following the laser excitation. Samples were irradiated with a total of 6 laser shots to acquire the temporal evolution of ΔOD.
A second layer of control was subsequently tested via LFP studies, to monitor the extent to which the trap segment deactivates the triplet excited state of the photosensitizes. […] The two quenchers emulate the trap segments utilized in 7 and 8, respectively.

[6] = Gibbs free energy for photoinduced electron transfer (equation 6); settings: for ΔGeT (Singlet), Gibbs free energy for PeT: PeT from chromanol to singlet excited state; for ΔGeT (Triplet), Gibbs free energy for PeT: PeT from chromanol to triplet excited state, endergonic
Excerpt: Consistent with quenching of the singlet via PeT from the chromanol segment, the Gibbs free energy for photoinduced electron transfer (ΔGeT^0) was exergonic for compounds 7 and 8, in the range of 0.4 eV (see Table 3).
Based on these calculations ΔGeT^0 for PeT from the chromanol to the triplet excited state of 3-6 was endergonic, ca. 0.27 eV, accounting for the small intermolecular rate constant of quenching measured for these compounds in the presence of either PMHC or trolox, and for the long triplet decay rate constant kT recorded for compound 8. Importantly, the efficiency of PeT also relies in the distance between the trap segment and the photosensitizers a factor that may additionally contribute to the differences observed between compound 7 (methylene linker) and compound 8 (ester linker).

| SMILES | E^oB^+·/B (reversible oxidation potential) [1] | increase in kdec upon halogen substitution [2] | kdec (fluorescence decay rate constant) [2] | knr (non-radiative decay rate constant, (1−φf)×kdec) [2] | krad (radiative rate constant, φf×kdec) [2] | ΦΔ^I (singlet oxygen quantum yield, indirect) [3] | E (Triplet), energy of the lowest triplet state [4] | kq (triplet quenching rate constant) Q = PMHC [5] | Triplet decay rate constant kT [5] [s⁻¹] | kT (triplet decay rate constant) Air equilibrated [5] | kT (triplet decay rate constant) Argon Purged [5] | kq (triplet quenching rate constant) Q = ^3O2 [5] | ΔGeT (Singlet), Gibbs free energy for PeT [6] [eV] | ΔGeT (Triplet), Gibbs free energy for PeT [6] [eV] | E^opc (cathodic peak potential) [1] | triplet-triplet absorption ([5]; in contrast to precursor 4) |
| --- | --- | --- | --- | --- | --- | --- | --- | --- | --- | --- | --- | --- | --- | --- | --- | --- |
| CC1=C(I)C(C)=[N+]2C1=C(C)c1c(C)c(I)c(C)n1[B-]2(F)F [Compound 3, 2,6-diiodo-1,3,5,7,8-pentamethyl-pyrromethene fluoroborate] | 0.88 | ca. 27 fold | 476.2 ± 0.7 × 10^7 s^−1 | 463.0 ± 0.7 × 10^7 s^−1 | 13.1 ± 0.2 × 10^7 s^−1 | 0.75 ± 0.04 | 1.70 | 1.20 ± 0.05 × 10^8 M^−1s^−1 | 17000 | 4.35 ± 0.02 × 10^6 s^−1 | 1.68 ± 0.02 × 10^4 s^−1 | 1.82 ± 0.03 × 10^9 M^−1s^−1 | −0.37 | 0.262 | – | – |
| CC1=C(Br)C(C)=[N+]2C1=C(C)c1c(C)c(Br)c(C)n1[B-]2(F)F [Compound 4, 2,6-dibromo-1,3,5,7,8-pentamethyl-pyrromethene fluoroborate] | 0.89 | 3.1 fold | 55.3 ± 0.2 × 10^7 s^−1 | 44.2 ± 0.2 × 10^7 s^−1 | 11.0 ± 0.2 × 10^7 s^−1 | 0.64 ± 0.03 | 1.71 | 1.29 ± 0.04 × 10^8 M^−1s^−1 | 27000 | 4.55 ± 0.03 × 10^6 s^−1 | 2.70 ± 0.02 × 10^4 s^−1 | 1.91 ± 0.02 × 10^9 M^−1s^−1 | −0.38 | 0.282 | – | – |
| CC(=O)OCC1=C2C(C)=C(I)C(C)=[N+]2[B-](F)(F)n2c(C)c(I)c(C)c21 [Compound 5, 8-Acetoxymethyl-2,6-diiodo-1,3,5,7-tetramethyl Pyrromethene Fluoroborate] | 0.91 | ~42 fold | 625.0 ± 0.7 × 10^7 s^−1 | 582.0 ± 0.7 × 10^7 s^−1 | 12.5 ± 0.2 × 10^7 s^−1 | 0.95 ± 0.03 | 1.54 | 3.95 ± 0.07 × 10^8 M^−1s^−1 | 17000 | 7.14 ± 0.04 × 10^6 s^−1 | 1.64 ± 0.02 × 10^4 s^−1 | 3.01 ± 0.01 × 10^9 M^−1s^−1 | −0.4 | 0.269 | −1.14 | – |
| CC(=O)OCC1=C2C(C)=C(Br)C(C)=[N+]2[B-](F)(F)n2c(C)c(Br)c(C)c21 [Compound 6, 8-Acetoxymethyl-2,6-dibromo-1,3,5,7-tetramethyl Pyrromethene Fluoroborate] | 0.94 | 4.5 fold | 66.7 ± 0.3 × 10^7 s^−1 | 57.4 ± 0.2 × 10^7 s^−1 | 9.3 ± 0.1 × 10^7 s^−1 | 0.79 ± 0.02 | 1.53 | 2.23 ± 0.05 × 10^8 M^−1s^−1 | 27000 | 6.67 ± 0.04 × 10^6 s^−1 | 2.72 ± 0.03 × 10^4 s^−1 | 2.80 ± 0.02 × 10^9 M^−1s^−1 | −0.43 | 0.287 | −1.13 | – |
| CC1=C(Br)C(C)=[N+]2C1=C(CC1(C)CCc3c(C)c(O)c(C)c(C)c3O1)c1c(C)c(Br)c(C)n1[B-]2(F)F (centres unmarked) [Compound 7, 8-((6-Hydroxy-2,5,7,8-tetramethylchroman-2-yl)-methyl)-2,6-dibromo-1,3,5,7-tetramethyl] | – | – | – | – | – | – | – | – | – | – | – | – | – | – | – | unable to detect any triplet-triplet absorption |
